Results on one substance are retold here after patent US10328011B2, “Use of proline containing dipeptides” (DSM IP ASSETS B.V., priority 2015, dated 2019).

Holding throughout (format): cell-based
One assay relates to LOXL2. As to the kind of experiment: Gene-expression analysis in normal human dermal fibroblasts: LOXL2. The note with it: peptide 0.01%, 24 hrs. On the procedure: LOXL2: This gene encodes a member of the lysyl oxidase gene family that catalyses the first step in the formation of crosslinks in collagens.
(§1) Normal human dermal fibroblasts at passage 7 from a donor were cultured in DMEM with L-glutamine 2 mM, Penicillin 50 U/ml-Streptomycin 50 ug/ml and 10% FCS in a 5% CO2 atmosphere at 37° C. After equilibration of cell in 1% FCS for 24 hrs the respective peptides H-(beta-Ala)-Pro-Dab-NH-benzyl [CAS 823202-99-9], respectively N-palmitoyl-Gly-His-Lys [147732-56-7]/N-palmitoyl-Gly-Gln-Pro-Arg [221227-C5-0] (2:1) diluted in growth medium to a concentration of 0.01% were added and the cells were incubated for an additional 24 hrs. At the end of incubation cells were washed in PBS and immediately frozen at −80° C. Total RNA was extracted using NucleoSpin RNA Plus kit (Macherey-Nagel) according to supplier's instructions. cDNA was synthesized by reverse transcription of total RNA using Transcriptor Reverse Transcriptase (Roche). PCR was performed on a LightCycler device (Roche Molecular Systems Inc.) according to manufacturer's instructions. Raw data were analyzed using Microsoft Excel.

Another assay concerns ADAMTS2. In words: Gene-expression analysis in normal human dermal fibroblasts: ADAMTS2. To be noted: peptide 0.01%, 24 hrs. The method, then:
ADAMTS2 is responsible for processing several types of procollagen proteins. Specifically, this enzyme clips a short chain of amino acids off one end of the procollagen. This clipping step is necessary for collagen molecules to function normally and assemble into fibrils outside cells.
as §1

A further assay has as its system PLOD3. In words: Gene-expression analysis in normal human dermal fibroblasts: PLOD3. The note with it: 24 hrs. The method, then: PLOD3: The enzyme catalyzes the hydroxylation of lysyl residues in collagen-like peptides. The resultant hydroxylysyl groups are attachment sites for carbohydrates in collagen and thus are critical for the stability of intermolecular crosslinks.
as §1

In the next assay the test system is PCOLCE. As to the kind of experiment: Gene-expression analysis in normal human dermal fibroblasts: PCOLCE. To be noted: peptide 0.01%, 24 hrs. The method, then:
PCOLCE: This gene encodes a glycoprotein which binds and drives the enzymatic cleavage of type I procollagen upon secretion from the cell, to yield the mature triple helical, highly structured fibrils.
as §1

In turn, “H-(beta-Ala)-Pro-Dab-NH-benzyl [H-(β-Ala)-Pro-Dab-NH-benzyl]” showed an LOXL2 gene expression with LOXL2 of 237%. For the same substance, in the assay on ADAMTS2, the ADAMTS2 gene expression was found to be 151%. In addition, the PLOD3 gene expression in the assay with PLOD3 (normal human dermal fibroblasts, peptide 0.01%) is on record as 299%. Also, the “upregulation of genes involved in collagen fiber maturation (in words)” value in the assay with PLOD3 (summary over PLOD3, LOXL2, PCOLCE, ADAMTS2, fibroblasts, 0.01%) is recorded as “significantly upregulates”. Moreover, the PCOLCE gene expression in the assay on PCOLCE amounted to 137%.
